From patent US20090093454A1, “Chemical Compounds” (priority 2005, published 2009)

Tested on: HIV-1
Experiment: HIV infectivity assay (Table 2, strain not given)
Format: cell-based
Conditions: Human immunodeficiency virus 1, read-out: Activity Level
Description: (§1) Compounds were profiled against two HIV-1 viruses, the M-tropic (CCR5 utilizing) Ba-L strain and the T-tropic (CXCR4 utilizing) IIIB strain. Both viruses were propagated in human peripheral blood lymphocytes. Compounds were tested for there ability to block infection of the HOS cell line (expressing hCXCR4/hCCR5/hCD4/pHIV-LTR-luciferase) by either HIV-1 Ba-L or HIV-1, IIIB. Compound cytotoxicity was also examined in the absence of virus addition.
(§2) HOS cells (expressing hCXCR4/hCCR5/hCD4/pHIV-LTR-luciferase) were harvested and diluted in Dulbeccos modified Eagles media supplemented with 2% FCS and non-essential amino acid to a concentration of 60,000 cells/ml. The cells were plated into 96-well plates (100 ul per well) and the plates were placed in a tissue culture incubator (37° C.; 5% CO2/95% air) for a period of 24 h.
Subsequently, 50 ul of the desired drug solution (4 times the final concentration) was added to each well and the plates were returned to the tissue culture incubator (37° C.; 5% CO2/95% air) for 1 h. Following this incubation 50 ul of diluted virus was added to each well (approximately 2 million RLU per well of virus). The plates were returned to the tissue culture incubator (37° C.; 5% CO2/95% air) and were incubated for a further 96 h.
Following this incubation the endpoint for the virally infected cultures was quantified following addition of Steady-Glo Luciferase assay system reagent (Promega, Madison, Wis.). Cell viability or non-infected cultures was measured using a CellTiter-Glo luminescent cell viability assay system (Promega, Madison, Wis.). All luminescent readouts are performed on a Topcount luminescence detector (Packard, Meridien, Conn.).
as §1, with “Ba-L was” for “Both viruses were”, “either peripheral blood lymphocytes or SupT1/CCR5+/CXCR4+ cells. IIIB was propagated in” for “human”, “their” for “there”
as §2, with “FCS” for “FCS and non-essential amino acid”, “120,000” for “60,000”, “(50 μl” for “(100 ul”, “(370°” for “(37°”
Subsequently, 50 μl of the desired drug solution (2 times the final concentration) was added to each well and the plates were returned to the tissue culture incubator (370° C.; 5% CO2/95% air) for 1 h. Following this incubation, 60 μl of diluted virus (4 times the final concentration) was added to 60 μl of 2× the final desired concentration of the compound and 100 μl of this compound/virus mix was added to each well (approximately 2 million RLU per well of virus). The plates were returned to the tissue culture incubator (370° C.; 5% CO2/95% air) and were incubated for a further 96 h.

SMILES	IC50 [nM]
CN1CCN(c2cccc3nc(CN4CCC[C@H]5CCc6cccnc6[C@@H]54)cn23)CC1 [Example 53, (4aR,10bR)-1-{[5-(4-methyl-1-piperazinyl)imidazo[1,2-a]pyridin-2-yl]methyl}-1,2,3,4,4a,5,6,10b-octahydro-1,10-phenanthroline]	< 100
c1ccc(N2CCN(c3cccc4nc(CN5CCC[C@H]6CCc7cccnc7[C@H]65)cn34)CC2)nc1 [Example 80, (4aR,10bS)-1-({5-[4-(2-pyridinyl)-1-piperazinyl]imidazo[1,2-a]pyridin-2-yl}methyl)-1,2,3,4,4a,5,6,10b-octahydro-1,10-phenanthroline]	100 to 500
OCCN1CCCN(c2cccc3nc(CN4CCC[C@H]5CCc6cccnc6[C@H]54)cn23)CC1 [Example 108, 2-(4-{2-[(4aR,10bS)-3,4,4a,5,6,10b-hexahydro-1,10-phenanthrolin-1(2H)-ylmethyl]imidazo[1,2-a]pyridin-5-yl}hexahydro-1H-1,4-diazepin-1-yl)ethanol]	< 100
CN1CCN(c2cccc3nc(CN4CCC[C@H]5CCc6cccnc6[C@H]54)c(CN4CCCCC4)n23)CC1 [Example 57, (4aR,10bS)-1-{[5-(4-methyl-1-piperazinyl)-3-(1-piperidinylmethyl)imidazo[1,2-a]pyridin-2-yl]methyl}-1,2,3,4,4a,5,6,10b-octahydro-1,10-phenanthroline]	< 100
CN(C)C(=O)CN1CCN(c2cccc3nc(CN4CCC[C@H]5CCc6cccnc6[C@H]54)cn23)CC1 [Example 102, 2-(4-{2-[(4aR,10bS)-3,4,4a,5,6,10b-hexahydro-1,10-phenanthrolin-1(2H)-ylmethyl]imidazo[1,2-a]pyridin-5-yl}-1-piperazinyl)-N,N-dimethylacetamide]	< 100
NCCCCn1c(CN2CCC[C@H]3CCc4cccnc4[C@H]32)nc2ccccc21 (racemic) [Example 38, (cis) 4-[2-(3,4,4a,5,6,10b-hexahydro-1,10-phenanthrolin-1(2H)-ylmethyl)-1H-benzimidazol-1-yl]-1-butanamine]	100 to 500
OCCN1CCN(c2cccc3nc(CN4CCC[C@H]5CCc6cccnc6[C@H]54)cn23)CC1 [Example 103, 2-(4-{2-[(4aR,10bS)-3,4,4a,5,6,10b-hexahydro-1,10-phenanthrolin-1(2H)-ylmethyl]imidazo[1,2-a]pyridin-5-yl}-1-piperazinyl)ethanol]	< 100
CN(C)CCN(C)c1cccc2nc(CN3CCC[C@H]4CCc5cccnc5[C@H]43)cn12 [Example 70, N-{2-[(4aR,10bS)-3,4,4a,5,6,10b-hexahydro-1,10-phenanthrolin-1(2H)-ylmethyl]imidazo[1,2-a]pyridin-5-yl}-N,N′,N′-trimethyl-1,2-ethanediamine]	< 100
c1cnc2c(c1)CC[C@@H]1CCCN(Cc3cn4c(N5CCSCC5)cccc4n3)[C@H]21 [Example 78, (4aR,10bS)-1-{[5-(4-thiomorpholinyl)imidazo[1,2-a]pyridin-2-yl]methyl}-1,2,3,4,4a,5,6,10b-octahydro-1,10-phenanthroline]	100 to 500
COCCN1CCN(c2cccc3nc(CN4CCC[C@H]5CCc6cccnc6[C@H]54)cn23)CC1 [Example 99, (4aR,10bS)-1-[(5-{4-[2-(methyloxy)ethyl]-1-piperazinyl}imidazo[1,2-a]pyridin-2-yl)methyl]-1,2,3,4,4a,5,6,10b-octahydro-1,10-phenanthroline]	< 100
CN(C)[C@H]1CCN(c2cccc3nc(CN4CCC[C@H]5CCc6cccnc6[C@H]54)cn23)C1 [Example 100, (3S)-1-{2-[(4aR,10bS)-3,4,4a,5,6,10b-hexahydro-1,10-phenanthrolin-1(2H)-ylmethyl]imidazo[1,2-a]pyridin-5-yl}-N,N-dimethyl-3-pyrrolidinamine]	< 100
c1cnc2c(c1)CC[C@@H]1CCCN(Cc3nc4ccccc4n3C[C@H]3CCCNC3)[C@H]21 [Example 64, (4aR,10bS)-1-({1-[(3S)-3-piperidinylmethyl]-1H-benzimidazol-2-yl}methyl)-1,2,3,4,4a,5,6,10b-octahydro-1,10-phenanthroline]	< 100
CN(C)C1CCN(c2cccc3nc(CN4CCC[C@H]5CCc6cccnc6[C@H]54)cn23)C1 (stereo partly drawn) [Example 83, 1-{2-[(4aR,10bS)-3,4,4a,5,6,10b-hexahydro-1,10-phenanthrolin-1(2H)-ylmethyl]imidazo[1,2-a]pyridin-5-yl}-N,N-dimethyl-3-pyrrolidinamine]	< 100
CN1CCCN(c2cccc3nc(CN4CCC[C@H]5CCc6cccnc6[C@H]54)cn23)CC1 [Example 93, (4aR,10bS)-1-{[5-(4-methylhexahydro-1H-1,4-diazepin-1-yl)imidazo[1,2-a]pyridin-2-yl]methyl}-1,2,3,4,4a,5,6,10b-octahydro-1,10-phenanthroline]	< 100
CN1CCN(Cc2c(CN3CCC[C@H]4CCc5cccnc5[C@H]43)nc3cccc(N4CCN(C)CC4)n23)CC1 [Example 56, (4aR,10bS)-1-({5-(4-methyl-1-piperazinyl)-3-[(4-methyl-1-piperazinyl)methyl]imidazo[1,2-a]pyridin-2-yl}methyl)-1,2,3,4,4a,5,6,10b-octahydro-1,10-phenanthroline]	< 100
c1cnc2c(c1)CC[C@@H]1CCCN(Cc3nc4ccccc4n3CCCN3CCCCC3)[C@H]21 (racemic) [Example 43, (cis) 1-({1-[3-(1-piperidinyl)propyl]-1H-benzimidazol-2-yl}methyl)-1,2,3,4,4a,5,6,10b-octahydro-1,10-phenanthroline]	< 100
CN(C)CCNc1cccc2nc(CN3CCC[C@H]4CCc5cccnc5[C@H]43)cn12 [Example 90, N′-{2-[(4aR,10bS)-3,4,4a,5,6,10b-hexahydro-1,10-phenanthrolin-1(2H)-ylmethyl]imidazo[1,2-a]pyridin-5-yl}-N,N-dimethyl-1,2-ethanediamine]	100 to 500
CN1CCN(c2cccc3nc(CN4CCC[C@H]5CCc6cccnc6[C@H]54)c(CO)n23)CC1 [Example 54, [2-[(4aR,10bS)-3,4,4a,5,6,10b-hexahydro-1,10-phenanthrolin-1(2H)-ylmethyl]-5-(4-methyl-1-piperazinyl)imidazo[1,2-a]pyridin-3-yl]methanol]	< 100
c1cnc2c(c1)CC[C@H]1CCN(Cc3nc4ccccc4n3Cc3nc4ccccc4[nH]3)[C@H]21 (racemic) [Example 131, (trans) 1-{[1-(1H-benzimidazol-2-ylmethyl)-1H-benzimidazol-2-yl]methyl}-2,3,3a,4,5,9b-hexahydro-1H-pyrrolo[3,2-h]quinoline]	500 to 10000
CN(C)CCCn1cncc1CN1CCC[C@H]2CCc3cccnc3[C@H]21 [Example 51b, (3-{5-[(4aR,10bS)-3,4,4a,5,6,10b-hexahydro-1,10-phenanthrolin-1(2H)-ylmethyl]-1H-imidazol-1-yl}propyl)dimethylamine]	500 to 10000
NCCCCCn1c(CN2CCC[C@H]3CCc4cccnc4[C@H]32)nc2ccccc21 (racemic) [Example 39, (cis) 5-[2-(3,4,4a,5,6,10b-hexahydro-1,10-phenanthrolin-1(2H)-ylmethyl)-1H-benzimidazol-1-yl]-1-pentanamine]	100 to 500
CCN1CCN(c2cccc3nc(CN4CCC[C@H]5CCc6cccnc6[C@H]54)cn23)CC1 [Example 73, (4aR,10bS)-1-{[5-(4-ethyl-1-piperazinyl)imidazo[1,2-a]pyridin-2-yl]methyl}-1,2,3,4,4a,5,6,10b-octahydro-1,10-phenanthroline]	< 100
c1cnc2c(c1)CC[C@@H]1CCCN(Cc3cn4c(N5CCC(N6CCCCC6)CC5)cccc4n3)[C@H]21 [Example 71, (4aR,10bS)-1-{[5-(1,4′-bipiperidin-1′-yl)imidazo[1,2-a]pyridin-2-yl]methyl}-1,2,3,4,4a,5,6,10b-octahydro-1,10-phenanthroline]	< 100
